Assay results: ChEMBL document CHEMBL5036322 (J Med Chem, 2021)
In brackets after ≈: the same amount, converted by molar mass. Activity calls are given as the source filed them. The rule behind the calls is not given here.

Key:
[1] = Apparent permeability of the compound in dog MDCKII-MDR1 cells measured after 1 hr; assay type: ADME, cell-based, Canis lupus familiaris; conditions: mdck-mdr1, 1 h
[2] = Aqueous solubility of the compound incubated for 18 hrs at pH 7.4 by UV spectrum based analysis; assay type: physicochemical
[3] = molecular target: Protein cereblon/DNA damage-binding protein 1 (Homo sapiens, UniProt Q96SW2)
Chain of Protein cereblon/DNA damage-binding protein 1 (Q96SW2 whole entry): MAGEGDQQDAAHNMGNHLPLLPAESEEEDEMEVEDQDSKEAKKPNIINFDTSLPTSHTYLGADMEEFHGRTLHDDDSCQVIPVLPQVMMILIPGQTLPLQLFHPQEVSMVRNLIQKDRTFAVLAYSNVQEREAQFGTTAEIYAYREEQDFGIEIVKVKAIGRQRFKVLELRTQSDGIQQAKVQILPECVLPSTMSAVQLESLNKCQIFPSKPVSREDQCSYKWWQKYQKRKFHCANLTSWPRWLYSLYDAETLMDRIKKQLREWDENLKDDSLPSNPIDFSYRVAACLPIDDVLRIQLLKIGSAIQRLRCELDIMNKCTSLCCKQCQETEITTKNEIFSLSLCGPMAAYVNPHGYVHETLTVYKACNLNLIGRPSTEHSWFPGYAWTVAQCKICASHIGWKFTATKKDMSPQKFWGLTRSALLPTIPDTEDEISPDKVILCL
Chain of Protein cereblon/DNA damage-binding protein 1 (Q16531 whole entry, further chain): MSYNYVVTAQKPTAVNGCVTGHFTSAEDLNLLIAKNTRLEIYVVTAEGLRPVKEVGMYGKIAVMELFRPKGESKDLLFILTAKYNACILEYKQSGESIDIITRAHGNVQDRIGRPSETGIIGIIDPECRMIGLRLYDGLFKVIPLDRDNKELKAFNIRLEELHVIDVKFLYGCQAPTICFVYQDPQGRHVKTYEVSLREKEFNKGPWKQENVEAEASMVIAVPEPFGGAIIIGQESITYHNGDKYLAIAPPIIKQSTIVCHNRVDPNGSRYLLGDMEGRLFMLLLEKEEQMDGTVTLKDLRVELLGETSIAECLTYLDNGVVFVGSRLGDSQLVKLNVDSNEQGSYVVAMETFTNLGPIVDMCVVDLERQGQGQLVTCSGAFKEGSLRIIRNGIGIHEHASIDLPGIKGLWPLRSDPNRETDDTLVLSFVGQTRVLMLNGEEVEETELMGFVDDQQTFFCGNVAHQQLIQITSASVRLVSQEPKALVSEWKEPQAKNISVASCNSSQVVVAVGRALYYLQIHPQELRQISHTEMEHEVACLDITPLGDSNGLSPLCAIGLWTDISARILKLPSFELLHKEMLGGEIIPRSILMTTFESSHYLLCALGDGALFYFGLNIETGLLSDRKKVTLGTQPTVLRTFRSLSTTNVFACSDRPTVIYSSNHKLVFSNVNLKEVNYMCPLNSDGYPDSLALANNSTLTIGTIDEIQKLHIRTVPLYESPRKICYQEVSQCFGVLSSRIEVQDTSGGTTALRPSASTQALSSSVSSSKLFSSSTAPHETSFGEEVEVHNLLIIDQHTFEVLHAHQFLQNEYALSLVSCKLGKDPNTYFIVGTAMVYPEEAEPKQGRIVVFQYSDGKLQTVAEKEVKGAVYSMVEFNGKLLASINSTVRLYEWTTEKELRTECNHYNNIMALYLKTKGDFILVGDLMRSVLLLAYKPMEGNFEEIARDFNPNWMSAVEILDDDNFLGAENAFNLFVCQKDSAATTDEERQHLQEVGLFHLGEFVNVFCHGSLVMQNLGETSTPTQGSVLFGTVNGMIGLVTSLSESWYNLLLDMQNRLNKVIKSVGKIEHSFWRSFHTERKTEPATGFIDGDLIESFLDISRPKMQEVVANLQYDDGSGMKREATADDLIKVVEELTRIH

[4] = system: MV4-11; test: Antiproliferative activity against human MV4-11 cells assessed as reduction in cell viability measured after 3 days by CellTiter-Glo assay; assay type: functional, cell-based; conditions: for EC50: MV4-11, 72 h
[5] = molecular target: Protein cereblon/Eukaryotic peptide chain release factor GTP-binding subunit ERF3A (Homo sapiens, UniProt P15170+Q96SW2); test: PROTAC activity at human CRBN/HiBiT-fused GSPT1 transfected in HEK293T cells assessed as induction of GSPT1 degradation measured after 4 hrs by Nano-Glo HiBiT lytic assay; assay type: cell-based
Chain of Protein cereblon/Eukaryotic peptide chain release factor GTP-binding subunit ERF3A (Homo sapiens, UniProt P15170+Q96SW2) (Q96SW2 whole entry, the tested form may be a part): as the sequence (Q96SW2 whole entry) above
Chain of Protein cereblon/Eukaryotic peptide chain release factor GTP-binding subunit ERF3A (Homo sapiens, UniProt P15170+Q96SW2) (P15170 whole entry, the tested form may be a part): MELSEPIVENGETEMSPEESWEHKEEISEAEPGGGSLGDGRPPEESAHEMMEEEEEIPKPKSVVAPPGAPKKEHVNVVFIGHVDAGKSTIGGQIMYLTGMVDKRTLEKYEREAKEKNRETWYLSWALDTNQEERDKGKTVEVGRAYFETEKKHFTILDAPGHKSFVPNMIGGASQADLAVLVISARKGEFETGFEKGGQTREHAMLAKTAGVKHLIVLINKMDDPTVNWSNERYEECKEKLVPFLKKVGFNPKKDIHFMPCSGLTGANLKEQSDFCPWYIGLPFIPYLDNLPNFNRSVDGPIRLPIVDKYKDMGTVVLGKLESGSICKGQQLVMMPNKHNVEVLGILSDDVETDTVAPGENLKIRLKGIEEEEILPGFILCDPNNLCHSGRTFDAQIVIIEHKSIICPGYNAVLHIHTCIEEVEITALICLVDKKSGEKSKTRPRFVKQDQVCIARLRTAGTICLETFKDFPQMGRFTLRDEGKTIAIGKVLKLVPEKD

[6] = system: MV4-11; test: Induction of apoptosis in human MV4-11 cells assessed as caspase activation at 10 to 100 nM measured after 24 hrs by luminescent Caspase-Glo assay; assay type: functional, cell-based; conditions: dose 10-100 nM
[7] = system: MV4-11; test: Antiproliferative activity against CRBN knock-out human MV4-11 cells assessed as reduction in cell viability measured after 3 days by CellTiter-Glo assay; assay type: functional, cell-based; conditions: time 3.0 day
[8] = (§1) Antiproliferative activity against human MHHCALL4 cells harboring CRLF2-rearranged JAK2 mutation assessed as reduction in cell viability measured after 3 days by CellTiter-Glo assay; assay type: functional, cell-based; conditions: MHHCALL4, 72 h
[9] = (§2) Antiproliferative activity against human MB004 cells harboring TP53 mutation at codon 274 GTT-TGT assessed as reduction in cell viability measured after 3 days by CellTiter-Glo assay; assay type: functional, cell-based; conditions: MB004, 72 h
[10] = system: MV4-11; test: PROTAC activity at CRBN/FLAG-tagged GSPT1 G575N mutant transfected in human MV4-11 cells assessed as induction of GSPT1 mutant degradation at 1 to 10 uM measured after 24 hrs by immunoblot analysis; assay type: cell-based; conditions: dose 1-10 µM
[11] = system: MV4-11; test: Antiproliferative activity against human MV4-11 cells assessed as reduction in cell viability measured after 3 days in presence of CRBN ligand, lenalidomide by CellTiter-Glo assay; assay type: functional, cell-based; conditions: time 3.0 day
[12] = Cytotoxicity against human PBMC assessed as reduction in cell viability
[13] = molecular target: T1, Protein cereblon/Eukaryotic peptide chain release factor GTP-binding subunit ERF3A (Homo sapiens, UniProt Q96SW2+P15170); conditions: MV4-11, dose 100.0 nM, time 24.0 hrs
Target sequence in this assay (P15170 whole entry, looked up): as the sequence (P15170 whole entry, the tested form may be a part) above
Target sequence in this assay (Q96SW2 whole entry, looked up): as the sequence (Q96SW2 whole entry) above

[14] = (§3) Antiproliferative activity against human HD-MB03 cells assessed as reduction in cell viability measured after 3 days by CellTiter-Glo assay; assay type: functional, cell-based; conditions: HD-MB03, 72 h
[15] = system: MV4-11; assay type: cell-based; conditions: Homo sapiens, dose 1-10 µM, time 24.0 hrs
[16] = system: MV4-11; test: Antiproliferative activity against human MV4-11 cells transfected with FLAG-tagged GSPT1 G575N mutant assessed as reduction in cell viability measured after 3 days by CellTiter-Glo assay; assay type: functional, cell-based; conditions: time 3.0 day
[17] = species on record: Homo sapiens; test: Induction of His-tagged CRBN/DDB1/biotin-tagged IKZF1 (unknown origin) ternary complex formation incubated for 90 mins by AlphaScreen assay
[18] = molecular target: T1, Protein cereblon/Eukaryotic peptide chain release factor GTP-binding subunit ERF3A; conditions: MV4-11, dose 100.0 nM, time 4.0 hrs
Target sequence in this assay (P15170 whole entry, looked up): as the sequence (P15170 whole entry, the tested form may be a part) above
Target sequence in this assay (Q96SW2 whole entry, looked up): as the sequence (Q96SW2 whole entry) above

[19] = Half life in CD-1 mouse liver microsomes measured upto 240 mins in presence of NADPH regenerating system by UHPLC-MS/MS analysis; assay type: ADME, Microsome; conditions: 4 h
[20] = molecular target: T1, Protein cereblon/Eukaryotic peptide chain release factor GTP-binding subunit ERF3A; conditions: mhhcall4
Target sequence in this assay (Q96SW2 whole entry): as above
Target sequence in this assay (P15170 whole entry): as the sequence (P15170 whole entry, the tested form may be a part) above

[21] = system: MV4-11; test: PROTAC activity at CRBN/SERPINF1 in human MV4-11 cells assessed as induction of SERPINF1degradation at 1 uM measured after 4 hrs by tandem mass tag mass spectrometry analysis; assay type: cell-based
[22] = Half life in human liver microsomes measured upto 240 mins in presence of NADPH regenerating system by UHPLC-MS/MS analysis; assay type: ADME, Microsome; conditions: 4 h
[23] = Protein binding in human plasma at 10 uM incubated for 4 hrs by UHPLC-MS/MS analysis; assay type: ADME, cell-free
[24] = system: MV4-11; test: Induction of apoptosis in human MV4-11 cells assessed as caspase activation at 10 to 100 nM measured after 8 hrs by luminescent Caspase-Glo assay; assay type: functional, cell-based; conditions: dose 10-100 nM
[25] = system: MV4-11; test: PROTAC activity at CRBN/GSPT2 in human MV4-11 cells assessed as induction of GSPT2 degradation at 1 uM measured after 4 hrs by tandem mass tag mass spectrometry analysis; assay type: cell-based
[26] = Protein binding in mouse plasma at 10 uM incubated for 4 hrs by UHPLC-MS/MS analysis; assay type: ADME, cell-free
[27] = system: MHHCALL4; test: as §1; assay type: functional, cell-based; conditions: time 3.0 day
[28] = system: MB004; test: as §2; assay type: functional, cell-based; conditions: time 3.0 day
[29] = system: HD-MB03; test: as §3; assay type: functional, cell-based; conditions: time 3.0 day

| Papp [1] | solubility at 18 h [2] | EC50 [4] | EC50 [5] | SMILES | IC50 [3] | Activity [12] | also measured |
| --- | --- | --- | --- | --- | --- | --- | --- |
| 4 ×10⁻⁶ cm/s | 64 µM (≈ 31.8 µg/mL) | > 10000 nM | > 10000 nM | O=C1CCC(N2C(=O)c3ccc(NS(=O)(=O)c4cccc(OC(F)(F)F)c4)cc3C2=O)C(=O)N1 (stereo not given) | 10 nM |  |  |
| 1.4 ×10⁻⁶ cm/s | 66 µM (≈ 31.8 µg/mL) | 89 nM | 52 nM | O=C1CCC(N2C(=O)c3ccc(NS(=O)(=O)c4ccccc4C(F)(F)F)cc3C2=O)C(=O)N1 (stereo not given) | 337 nM |  |  |
| 6.8 ×10⁻⁶ cm/s | 84 µM (≈ 35.9 µg/mL) | 7400 nM | 9320 nM | Cc1ccccc1S(=O)(=O)Nc1ccc2c(c1)C(=O)N(C1CCC(=O)NC1=O)C2=O (stereo not given) | 11 nM |  |  |
| 0.6 ×10⁻⁶ cm/s | 85 µM (≈ 37.7 µg/mL) | > 10000 nM | > 10000 nM | COc1ccccc1S(=O)(=O)Nc1ccc2c(c1)C(=O)N(C1CCC(=O)NC1=O)C2=O (stereo not given) | 612 nM |  |  |
| 1.7 ×10⁻⁶ cm/s | 74 µM (≈ 33.1 µg/mL) | > 10000 nM | > 10000 nM | O=C1CCC(N2C(=O)c3ccc(NS(=O)(=O)c4cccc(Cl)c4)cc3C2=O)C(=O)N1 (stereo not given) | 23 nM |  |  |
| 4.6 ×10⁻⁶ cm/s |  | > 10000 nM | > 10000 nM | Cc1ccc(S(=O)(=O)Nc2ccc3c(c2)C(=O)N(C2CCC(=O)NC2=O)C3=O)cc1Cl (stereo not given) | 1 nM |  |  |
| 3.6 ×10⁻⁶ cm/s | 71 µM (≈ 29.4 µg/mL) | > 10000 nM | > 10000 nM | O=C1CCC(N2C(=O)c3ccc(NS(=O)(=O)c4ccccc4)cc3C2=O)C(=O)N1 (stereo not given) | 3 nM |  |  |
|  |  |  |  | Cc1ccc(NC(=O)NCc2ccc3c(c2)CN(C2CCC(=O)NC2=O)C3=O)cc1Cl (stereo not given) | 18 nM | Toxic | Activity [27]: Active; Activity [28]: Active; Activity ([4]; time 3.0 day): Active; Activity [29]: Active |
| 1.1 ×10⁻⁶ cm/s | 76 µM (≈ 37.8 µg/mL) | > 10000 nM | > 10000 nM | O=C1CCC(N2C(=O)c3ccc(NS(=O)(=O)c4ccc(OC(F)(F)F)cc4)cc3C2=O)C(=O)N1 (stereo not given) | 9 nM |  |  |

| SMILES | Papp [1] | solubility at 18 h [2] | EC50 [4] | EC50 [5] | IC50 [3] | Activity [12] | also measured |
| --- | --- | --- | --- | --- | --- | --- | --- |
| Cc1c(Cl)cccc1S(=O)(=O)Nc1ccc2c(c1)C(=O)N(C1CCC(=O)NC1=O)C2=O (stereo not given) | 3.6 ×10⁻⁶ cm/s | 64 µM (≈ 29.6 µg/mL) |  |  |  | Toxic | Activity [6]: Active; Activity [7]: inactive; EC50 [8]: 4.4 nM; EC50 [9]: 1100 nM; Activity [10]: inactive; Activity [11]: inactive; Emax [13]: 90%; EC50 [14]: > 8000 nM; Activity [15]: inactive; Activity [16]: inactive; Activity [17]: inactive |
| O=C1CCC(N2C(=O)c3ccc(NS(=O)(=O)c4ccccc4OC(F)(F)F)cc3C2=O)C(=O)N1 (stereo not given) | 2.3 ×10⁻⁶ cm/s | 67 µM (≈ 33.3 µg/mL) | 1.5 nM |  |  | Toxic | Emax [18]: 90%; t1/2 [19]: 4.7 h; Activity [7]: inactive; DC50 [20]: Not Active; EC50 [8]: 0.4 nM; Activity [21]: Active; t1/2 [22]: 5.7 h; PPB [23]: 99.1%; Activity [24]: Active; Activity [25]: Active; EC50 [9]: 336 nM; Activity [10]: inactive; Activity [11]: inactive; EC50 [14]: 3580 nM; Activity [15]: inactive; Activity [16]: inactive; Activity [17]: inactive; PPB [26]: 99.3% |
| O=C1CCC(N2Cc3cc(CNC(=O)C(F)(F)c4ccc(Cl)cc4)ccc3C2=O)C(=O)N1 (stereo not given) | 4.9 ×10⁻⁶ cm/s | 77 µM (≈ 35.6 µg/mL) | 62 nM |  |  | Toxic |  |
